# Source: patent EP3760291B1 (Stellenbosch University, priority 2019, dated 2021)
# How the values were obtained:
# [1] = water; cited from earlier work
# [2] = Partitioning of resveratrol from biomass (grape pomace) in polymer-salt (PEG-salt) aqueous two-phase system; format: physicochemical
# Description: The partitioning of the polyphenolic biomolecule can be quantified using parameters such as the partition coefficient (K) and the yield (Y). The partition coefficient reflects the extent of separation of the polyphenolic compound into the polymer phase. It is defined as the ratio of […]. Partition coefficients of more than 1 indicate a higher concentration of the specific molecule in the top phase. The partition coefficient (K) is calculated with equation 5 in which cT is the concentration of the molecule in the top phase and CB is the concentration of the molecule in the bottom phase. K = (CT)/(CB) [formula]
# Polymer-salt aqueous two-phase systems with PEG of different molecular weights were prepared using PEG 400 (Mw =400 g/mol), PEG 1000 (Mw =1000 g/mol), PEG 4000 (Mw =4000 g/mol), PEG 8000 (Mw =8000 g/mol), and PEG 10000 (Mw =10 000 g/mol).
# Two different ATP systems with different polymer and salt concentrations were investigated. System A contains 11 wt% PEG and 26 wt% ammonium sulphate and system B contains 13 wt% PEG and 13 wt% ammonium sulphate. Table 2. Quantities of materials used to extract resveratrol in systems A and B
# 20 ml pomace was added to a polymer-salt ATP systems comprising 20 ml water, 5 g PEG 8000 (11 wt%) and 2.5 g (7 wt%), 5 g (13 wt%), 8 g (19 wt%) and 12 g (26 wt%) ammonium salt, respectively.
# 20 ml pomace was added to a polymer-salt ATP systems comprising 11 wt% PEG 8000 and 26 wt% tartrate, citrate, sulphate and phosphate salt solutions (20 ml water), respectively. The partition coefficient and percentage extraction of resveratrol to the PEG top phase was determined for each of the different types of salts.
# The bottom phase of the ATPS (consisting of the salt solution) therefore only contained trace amounts of resveratrol, with the remaining resveratrol still contained in the biomass. It was therefore assumed that within the bottom phases exiting the polymer-salt ATPS reactor, that the remaining resveratrol that was not extracted would be contained within the raw biomass of grape pomace and canes, and not in the salt solution.
# [3] = as above; format: physicochemical; conditions: about 10% (w/w) PEG 8000 and about 15% (w/w) tartrate salt; raw biomass
# [4] = format: physicochemical; conditions: pH 11.03
# Protocol: Polymer-polymer aqueous two-phase systems were prepared using maltodextrin (mdx) in combination with PEG 4000 and PEG 8000. […] Demineralised water was added to yield a net weight of 200 g of solution.
# Control/base solutions were prepared to be used as a baseline in the spectrophotometer by preparing the same solutions described above, but without resveratrol.
# The aqueous two-phase systems were formed by continuously stirring the solutions using a magnetic stirrer for 30 minutes. […] In both the extraction solution and in the base solution two distinct phases were formed. 1 ml of the bottom phase of the extraction solution was separated from the system using a pipette tapped into an Erlenmeyer flask and 1 ml of the bottom phase of the blank solution was poured into a separate Erlenmeyer flask. The solutions were diluted by adding 50 ml of demineralised water to each.
# Cuvettes containing the base solution were placed in the spectrophotometer and the system baselined. One of the cuvettes was then removed, rinsed with the diluted top phase of the extraction solution, and filled with the solution. […] The absorbance at the peak was then used to quantify the resveratrol content.
# The resveratrol content of the top phase was quantified using the same methodology as for the bottom phase, using the top phase of the base solution to baseline the spectrophotometer. […]
smiles,measurement,setting,value
Oc1ccc(C=Cc2cc(O)cc(O)c2)cc1 [resveratrol],aqueous solubility,[1],3 mg/100 ml
same,Partition Coefficient,"[2]; 11 wt% PEG 8000, Ammonium sulphate, 25,5 wt% salt, to PEG top phase",351
same,Partition Coefficient,"[2]; 11 wt% PEG 8000, Potassium hydrogen phosphate trihydrate, 25,5 wt% salt, to PEG top phase",218
same,Partition Coefficient,"[2]; 11 wt% PEG 8000, Potassium sodium tartrate tetrahydrate, 25,5 wt% salt, to PEG top phase",177
same,Partition Coefficient,"[2]; 11 wt% PEG 8000, Tri-sodium citrate dihydrate, 25,5 wt% salt, to PEG top phase",79
same,Partition Coefficient,"[2]; PEG 8000 (11 wt%), 7 wt% ammonium sulphate, to PEG top phase",78
same,Partition Coefficient,"[2]; PEG 8000 (11 wt%), 13 wt% ammonium sulphate, to PEG top phase",242
same,Partition Coefficient,"[2]; PEG 8000 (11 wt%), 19 wt% ammonium sulphate, to PEG top phase",334
same,Partition Coefficient,"[2]; PEG 8000 (11 wt%), 26 wt% ammonium sulphate, to PEG top phase",351
same,Partition Coefficient,"[2]; System A: 11 wt% PEG, 26 wt% ammonium sulphate, PEG 400, to PEG top phase",164
same,Partition Coefficient,"[2]; System A: 11 wt% PEG, 26 wt% ammonium sulphate, PEG 1000, to PEG top phase",177
same,Partition Coefficient,"[2]; System A: 11 wt% PEG, 26 wt% ammonium sulphate, PEG 4000, to PEG top phase",341
same,Partition Coefficient,"[2]; System A: 11 wt% PEG, 26 wt% ammonium sulphate, PEG 8000, to PEG top phase",351
same,Partition Coefficient,"[2]; System A: 11 wt% PEG, 26 wt% ammonium sulphate, PEG 10000, to PEG top phase",174
same,Partition Coefficient,"[2]; System B: 13 wt% PEG, 13 wt% ammonium sulphate, PEG 4000, to PEG top phase",33
same,Partition Coefficient,"[2]; System B: 13 wt% PEG, 13 wt% ammonium sulphate, PEG 8000, to PEG top phase",242
same,Partition Coefficient,"[2]; System B: 13 wt% PEG, 13 wt% ammonium sulphate, PEG 10000, to PEG top phase",200
same,resveratrol partitioning to the top phase,[3],99.6%
same,partition coefficient of the system,[4],1.36
